Tests used:
Format in all cases: in vivo
[1] = tested on: waterhemp_RES2 (ALS & HPPD resistant common waterhemp, Amaranthus rudis); assay: Test E greenhouse herbicide test, postemergence
Summary of the method: (§1)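 Postemergence spray on potted plants, 1–4 leaves, 2–18 cm; greenhouse 14–21 d; visual rating vs controls, 0 (no effect) to 100 (complete control).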

[2] = tested on: waterhemp_RES1 (ALS & Triazine resistant common waterhemp, Amaranthus rudis); assay: Test E greenhouse herbicide test, postemergence
Summary of the method: as §1

corn (Zea mays) = assay: Test E greenhouse herbicide test, pre- and postemergence
Summary of the method: (§2)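 For each species, sown seed in silt loam and young plants (2 to 18 cm) in a peat/vermiculite medium were each treated with compound dissolved in surfactant-containing, non-phytotoxic solvent. After 14 to 21 d under greenhouse conditions, effects were visually rated, 100 meaning complete control.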

[3] = tested on: Italian ryegrass (Lolium multiflorum); assay: as above
Summary of the method: as §2

[4] = tested on: dayflower (Virginia (VA) dayflower, Commelina virginica); assay: as above
Summary of the method: as §2

[5] = tested on: waterhemp (common waterhemp, Amaranthus rudis); assay: as above
Summary of the method: as §2

[6] = tested on: lambsquarters (Chenopodium album); assay: as above; conditions: Preemergence
Summary of the method: as §2

kochia (Kochia scoparia) = assay: as above
Summary of the method: as §2

[7] = tested on: beggarticks (hairy beggarticks, Bidens pilosa); assay: as above
Summary of the method: as §2

[8] = tested on: sandbur (southem sandbur, Cenchrus echinatus); assay: as above
Summary of the method: as §2

[9] = tested on: foxtail, green (green foxtail, Setaria viridis); assay: as above; conditions: Preemergence
Summary of the method: as §2

[10] = tested on: nutsedge, yellow (yellow nutsedge, Cyperus esculentus); assay: as above; conditions: Preemergence
Summary of the method: as §2

[11] = tested on: wild poinsettia (Euphorbia heterophylla); assay: as above
Summary of the method: as §2

[12] = tested on: velvetleaf (Abutilon theophrasti); assay: as above; conditions: Preemergence
Summary of the method: as §2

[13] = 16 g ai/ha, visual, scale 0 no effect to 100 complete control
[14] = 31 g ai/ha, visual, scale 0 no effect to 100 complete control
[15] = 125 g ai/ha, scale 0 to 100 (0 no effect, 100 complete control)
[16] = 62 g ai/ha, Postemergence, scale 0 to 100 (0 no effect, 100 complete control)
[17] = 62 g ai/ha, Preemergence, scale 0 to 100 (0 no effect, 100 complete control)
[18] = 125 g ai/ha, Postemergence, scale 0 to 100 (0 no effect, 100 complete control)
[19] = 125 g ai/ha, Preemergence, scale 0 to 100 (0 no effect, 100 complete control)
[20] = Postemergence, 16 g ai/ha, visual, scale 0 no effect to 100 complete control
[21] = Postemergence, 31 g ai/ha, visual, scale 0 no effect to 100 complete control
[22] = Preemergence, 16 g ai/ha, scale 0 to 100, 0 no effect, 100 complete control
[23] = Preemergence, 31 g ai/ha, scale 0 to 100, 0 no effect, 100 complete control
[24] = 62 g ai/ha, scale 0 to 100 (0 no effect, 100 complete control)
[25] = 16 g ai/ha, scale 0 to 100, 0 no effect, 100 complete control
[26] = 31 g ai/ha, scale 0 to 100, 0 no effect, 100 complete control

CCCC(=O)Oc1c(C)nn(C)c(=O)c1-c1c(C)sc2ccc(C)cc12 [Compound 105]
Plant response rating, Waterhemp_RES2 [1, 13]: 40
Plant response rating, Waterhemp_RES2 [1, 14]: 50
Plant response rating, Waterhemp_RES2 [1, 15]: 70
Plant response rating, Waterhemp_RES1 [2, 13]: 80
Plant response rating, Waterhemp_RES1 [2, 14]: 80
Plant response rating, Waterhemp_RES1 [2, 15]: 100
Plant response rating, Corn (corn (Zea mays); [16]): 15
Plant response rating, Corn (corn (Zea mays); [17]): 0
Plant response rating, Corn (corn (Zea mays); [18]): 20
Plant response rating, Corn (corn (Zea mays); [19]): 0
Plant response rating, Corn (corn (Zea mays); [20]): 0
Plant response rating, Corn (corn (Zea mays); [21]): 5
Plant response rating, Corn (corn (Zea mays); [22]): 0
Plant response rating, Corn (corn (Zea mays); [23]): 0
Plant response rating, Ryegrass, Italian [3, 16]: 70
Plant response rating, Ryegrass, Italian [3, 17]: 95
Plant response rating, Ryegrass, Italian [3, 18]: 80
Plant response rating, Ryegrass, Italian [3, 19]: 100
Plant response rating, Ryegrass, Italian [3, 20]: 30
Plant response rating, Ryegrass, Italian [3, 21]: 50
Plant response rating, Ryegrass, Italian [3, 22]: 75
Plant response rating, Ryegrass, Italian [3, 23]: 90
Plant response rating, Dayflower, VA [4, 16]: 50
Plant response rating, Dayflower, VA [4, 17]: 0
Plant response rating, Dayflower, VA [4, 18]: 60
Plant response rating, Dayflower, VA [4, 19]: 10
Plant response rating, Dayflower, VA [4, 20]: 30
Plant response rating, Dayflower, VA [4, 21]: 30
Plant response rating, Dayflower, VA [4, 22]: 0
Plant response rating, Dayflower, VA [4, 23]: 0
Plant response rating, Waterhemp [5, 17]: 90
Plant response rating, Waterhemp [5, 18]: 90
Plant response rating, Waterhemp [5, 19]: 100
Plant response rating, Waterhemp [5, 20]: 60
Plant response rating, Waterhemp [5, 21]: 70
Plant response rating, Waterhemp [5, 22]: 70
Plant response rating, Waterhemp [5, 23]: 80
Plant response rating, Lambsquarters [6, 24]: 100
Plant response rating, Lambsquarters [6, 15]: 100
Plant response rating, Lambsquarters [6, 25]: 0
Plant response rating, Lambsquarters [6, 26]: 0
Plant response rating, Kochia (kochia (Kochia scoparia); [16]): 90
Plant response rating, Kochia (kochia (Kochia scoparia); [17]): 35
Plant response rating, Kochia (kochia (Kochia scoparia); [18]): 100
Plant response rating, Kochia (kochia (Kochia scoparia); [19]): 100
Plant response rating, Kochia (kochia (Kochia scoparia); [20]): 80
Plant response rating, Kochia (kochia (Kochia scoparia); [21]): 80
Plant response rating, Kochia (kochia (Kochia scoparia); [22]): 0
Plant response rating, Kochia (kochia (Kochia scoparia); [23]): 0
Plant response rating, Beggarticks [7, 16]: 100
Plant response rating, Beggarticks [7, 17]: 100
Plant response rating, Beggarticks [7, 18]: 100
Plant response rating, Beggarticks [7, 19]: 100
Plant response rating, Beggarticks [7, 20]: 80
Plant response rating, Beggarticks [7, 21]: 90
Plant response rating, Beggarticks [7, 22]: 90
Plant response rating, Beggarticks [7, 23]: 80
Plant response rating, Sandbur [8, 17]: 70
Plant response rating, Sandbur [8, 18]: 50
Plant response rating, Sandbur [8, 19]: 75
Plant response rating, Sandbur [8, 20]: 30
Plant response rating, Sandbur [8, 21]: 40
Plant response rating, Sandbur [8, 22]: 0
Plant response rating, Sandbur [8, 23]: 15
Plant response rating, Foxtail, Green [9, 24]: 30
Plant response rating, Foxtail, Green [9, 15]: 40
Plant response rating, Foxtail, Green [9, 25]: 0
Plant response rating, Foxtail, Green [9, 26]: 0
Plant response rating, Nutsedge, Yellow [10, 24]: 10
Plant response rating, Nutsedge, Yellow [10, 15]: 40
Plant response rating, Nutsedge, Yellow [10, 25]: 0
Plant response rating, Nutsedge, Yellow [10, 26]: 0
Plant response rating, Poinsettia, Wild [11, 16]: 25
Plant response rating, Poinsettia, Wild [11, 17]: 10
Plant response rating, Poinsettia, Wild [11, 18]: 30
Plant response rating, Poinsettia, Wild [11, 19]: 10
Plant response rating, Poinsettia, Wild [11, 20]: 30
Plant response rating, Poinsettia, Wild [11, 21]: 30
Plant response rating, Poinsettia, Wild [11, 22]: 0
Plant response rating, Poinsettia, Wild [11, 23]: 10
Plant response rating, Velvetleaf [12, 24]: 70
Plant response rating, Velvetleaf [12, 15]: 95
Plant response rating, Velvetleaf [12, 25]: 0
Plant response rating, Velvetleaf [12, 26]: 50

Source: patent US10597388B2, “Pyridazinone herbicides” (FMC CORPORATION, priority 2014, dated 2020)
